PMC9105976, “A Novel β-Hairpin Peptide Z-d14CFR Enhances Multidrug-Resistant Bacterial Clearance in a Murine Model of Mastitis” (International Journal of Molecular Sciences, 2022)
Converted amounts (≈) assume the structure as drawn. Read-outs that look alike come from different tables or passages of the source. Positions of bridges follow the written chain, without caps; N, C: chain ends. Residues, ends and D or L forms follow the SMILES beside them.

Key:
[1] = test system: Klebsiella pneumoniae CAU202084; assay: MIC/MBC, microdilution broth method; assay type: cell-based; settings: for MBC: kills 99.9% bacteria, NA = no activity at 1 mg/mL
Protocol: (§1) The MIC of peptides against bacteria was carried out by the microdilution broth method. The bacterial culture (OD 600 = 0.6) was diluted in 10 mM PBS to 1 × 10^6 CFU/mL. The bacterial suspension (100 μL) was added to 96-well plates, and the same volume of peptides, ampicillin or gentamicin (concentrations ranging from 0.001 to 2 mg/mL) were then added to the same 96-well plates, respectively.

[2] = test system: Escherichia coli CAU 201920; assay: MIC/MBC, microdilution broth method; assay type: cell-based; settings: for MBC: CAU201920, Escherichia coli CAU 201920 (MDR isolate), kills 99.9% bacteria, NA = no activity at 1 mg/mL, read-out: MBC; for MIC: Escherichia coli, CAU201920, 18 h, read-out: MIC
Protocol: as §1

[3] = test system: Salmonella typhimurium ATCC14028; assay: MIC/MBC, microdilution broth method; assay type: cell-based; settings: Salmonella enterica; for MIC: 18 h, read-out: MIC; for MBC: Salmonella typhimurium ATCC14028, kills 99.9% bacteria, NA = no activity at 1 mg/mL, read-out: MBC
Protocol: as §1

[4] = test system: Escherichia coli CAU 201919; assay: MIC/MBC, microdilution broth method; assay type: cell-based; settings: for MBC: CAU201919, Escherichia coli CAU 201919 (MDR isolate), kills 99.9% bacteria, NA = no activity at 1 mg/mL, read-out: MBC; for MIC: Escherichia coli, CAU201919, 18 h, read-out: MIC
Protocol: as §1

[5] = test system: Bacillus cereus CAU 202020; assay: MIC/MBC, microdilution broth method; assay type: cell-based; settings: for MIC: Bacillus cereus, CAU202020, 18 h, read-out: MIC; for MBC: CAU202020, Bacillus cereus CAU 202020 (MDR isolate), kills 99.9% bacteria, NA = no activity at 1 mg/mL, read-out: MBC
Protocol: as §1

[6] = test system: Escherichia coli CVCC1450; assay: MIC/MBC, microdilution broth method; assay type: cell-based; settings: for MBC: Escherichia coli CVCC1450, minimum concentration which kills 99.9% bacteria, NA = no activity at 1 mg/mL, read-out: MBC; for MIC: Escherichia coli, CVCC1450, 18 h, read-out: MIC
Protocol: as §1

[7] = test system: Staphylococcus aureus ATCC29213; assay: MIC/MBC, microdilution broth method; assay type: cell-based; settings: for MBC: Staphylococcus aureus ATCC29213, kills 99.9% bacteria, NA = no activity at 1 mg/mL, read-out: MBC; for MIC: Staphylococcus aureus, ATCC29213, 18 h, read-out: MIC
Protocol: as §1

[8] = test system: Streptococcus suis CVCC3307; assay: MIC/MBC, microdilution broth method; assay type: cell-based; settings: for MBC: kills 99.9% bacteria, NA = no activity at 1 mg/mL
Protocol: as §1

[9] = test system: Staphylococcus haemolyticus CAU202078; assay: MIC/MBC, microdilution broth method; assay type: cell-based; settings: for MBC: Staphylococcus haemolyticus CAU202078 (MDR isolate), kills 99.9% bacteria, NA = no activity at 1 mg/mL, read-out: MBC; for MIC: Staphylococcus haemolyticus, CAU202078, 18 h, read-out: MIC
Protocol: as §1

[10] = test system: Escherichia coli ATCC25922; assay: MIC/MBC, microdilution broth method; assay type: cell-based; settings: for MBC: Escherichia coli ATCC25922, minimum concentration which kills 99.9% bacteria, NA = no activity at 1 mg/mL, read-out: MBC; for MIC: Escherichia coli, ATCC25922, 18 h, read-out: MIC
Protocol: as §1

[11] = test system: Proteus vulgaris CVCC1971; assay: MIC/MBC, microdilution broth method; assay type: cell-based; settings: for MBC: kills 99.9% bacteria, NA = no activity at 1 mg/mL
Protocol: as §1

MRSA ATCC33591 = assay: MIC/MBC, microdilution broth method; assay type: cell-based, S. aureus; settings: for MBC: MRSA ATCC33591, kills 99.9% bacteria, NA = no activity at 1 mg/mL
Protocol: as §1

[12] = Retention time of peptide in HPLC (hydrophobicity); assay type: physicochemical; settings: used as measure of hydrophobicity (order Z-d14CR > Z-d14CF > Z-d13 > Z-d14CFR > Z-d14C); column and gradient not given
S. aureus ATCC29213 = assay: Time-killing assay; assay type: cell-based; settings: 2 MIC, CFU counts at 0-24 h; for time to kill bacteria in the logarithmic phase: 1 × 10^6 CFU/mL
Protocol: (§2) E. coli ATCC25922 and S. aureus ATCC29213 in the mid-logarithmic phase were diluted into 1 × 10^6 CFU/mL with 10 mM PBS, and incubated with 10 μL Z-d14CFR in a final concentration of 2 MIC. At 0, 4, 8, 12, 16, 20, and 24 h, the mixture was serial diluted and spread onto LB agar plates. After 16 h of cultivation, the CFU number of bacteria was counted to evaluate the ability of peptide to kill bacteria. The bacteria treated with 10 mM PBS as a negative control, and meanwhile incubated with 2 MIC gentamicin or polymyxin B as a positive control.

E. coli ATCC25922 = assay: Time-killing assay; assay type: cell-based; settings: 2 MIC, CFU counts at 0-24 h; for time to kill bacteria in the logarithmic phase: 1 × 10^6 CFU/mL
Protocol: as §2

E. coli CAU201919 = assay: Murine model of mastitis induced by MDR E. coli; assay type: in vivo, mice; settings: Z-d14CFR 25 μg or gentamicin 10 μg via milk duct at 3 h and 15 h, 27 h post-infection
Source text: In this study, the therapeutic effects of Z-d14CFR on MDR bacterial infection in vivo was verified by a murine mastitis model. E. coli CAU201919 was used to establish the mastitis model because it is highly pathogenic compared with other bacteria and is resistant to various antibiotics, such as ampicillin, amoxicillin and cefazolin. In brief, 45 Crl:CD1 female mice at 17–18 days of gestation were purchased from Beijing Vital River Laboratory Animal Technology Co., Ltd. (Beijing, China) and kept in the Laboratory Animal Center of China Agricultural University (Beijing, China). At 72 h post-partum, the mice were randomly divided into 5 groups (n = 9 per group) and the offspring were removed 3 h before of administration. The mice were anesthetized by Zoletil 50 (55 mg/kg body weight, WK001, Virbac, France) and held under the stereoscope in a supine position. Mice in the saline group and Z-d14CFR group were intraductal inoculated with 50 μL normal saline or 50 μL Z-d14CFR (25 μg each teat) alone to the milk duct. Mice in other groups were inoculated with 25 μL (1 × 10^5 CFU) E. coli CAU201919 suspension to the milk duct, and after 3 h of E. coli challenged, mice were treated with 25 μL saline, Z-d14CFR (25 μg) or gentamicin (10 μg), respectively, via milk duct injection. Then the mice were given the same treatment after 15 h of E. coli challenged. After 27 h of E. coli challenged, all mice were euthanized. The mammary gland tissues were collected to carry out bacterial count, histopathological examination and inflammatory factors examination.

[13] = Klebsiella pneumoniae CAU202084 (MDR isolate), read-out: MBC
[14] = Klebsiella pneumoniae, CAU202084, 18 h, read-out: MIC
[15] = Streptococcus suis CVCC3307, read-out: MBC
[16] = Streptococcus suis, CVCC3307, 18 h, read-out: MIC
[17] = Proteus vulgaris CVCC1971, read-out: MBC
[18] = Proteus vulgaris, CVCC1971, 18 h, read-out: MIC
[19] = Staphylococcus aureus, 18 h, read-out: MIC
[20] = Staphylococcus aureus, read-out: MBC

Row | Compound | MBC [1, 13] | MIC [1, 14] | MBC [2] | MIC [2] | MIC [3] | MBC [3] | MBC [4] | MIC [4] | MIC [5] | MBC [5] | MBC [6] | MIC [6] | MBC [7] | MIC [7] | MBC [8, 15] | MIC [8, 16] | MBC [9] | MIC [9] | MBC [10] | MIC [10] | other results
1 | CC1(C)S[C@@H]2[C@H](NC(=O)[C@H](N)c3ccccc3)C(=O)N2[C@H]1C(=O)O [Ampicillin, reference compound] | > 1000 mg/L | > 1000 mg/L | > 1000 mg/L | > 1000 mg/L | 4 mg/L (≈ 11.4 µM) | 8 mg/L (≈ 22.9 µM) | > 1000 mg/L | > 1000 mg/L | > 1000 mg/L | > 1000 mg/L | 32 mg/L (≈ 91.6 µM) | 8 mg/L (≈ 22.9 µM) | 4 mg/L (≈ 11.4 µM) | 2 mg/L (≈ 5.72 µM) | 2 mg/L (≈ 5.72 µM) | 1 mg/L (≈ 2.86 µM) | > 1000 mg/L | > 1000 mg/L | 16 mg/L (≈ 45.8 µM) | 4 mg/L (≈ 11.4 µM) | MBC [11, 17]: > 1000 mg/L; MIC [11, 18]: > 1000 mg/L; MIC (MRSA ATCC33591; [19]): > 1000 mg/L; MBC (MRSA ATCC33591; [20]): > 1000 mg/L
2 | CC(C)[C@@H]1NC(=O)[C@@H]2CSSC[C@H](NC(=O)[C@H](Cc3ccc(O)cc3)NC(=O)[C@@H](NC(=O)CNC(=O)[C@@H](N)CCCNC(=N)N)CSSC[C@@H](C(=O)N[C@@H](CCCNC(=N)N)C(N)=O)NC1=O)C(=O)N[C@@H](CC(N)=O)C(=O)N[C@@H](CO)C(=O)N[C@@H](CCCCN)C(=O)N[C@@H](CO)C(=O)N[C@@H](Cc1ccccc1)C(=O)N2 [Z-d14CF] (H-RGCYCNSKSFCVCR-NH2; disulfide 3-13, 5-11; N-terminus assumed) | – | – | – | – | – | – | – | – | – | – | – | – | – | – | – | – | – | – | – | – | MIC ([1]; Klebsiella pneumoniae CAU202084 (MDR isolate), 1 × 10^6 CFU/mL, 18 h at 37 °C, NA = no antimicrobial activity at 1 mg/mL): NA (NA) (No antimicrobial activity at 1 mg/mL); MBC ([1]; Klebsiella pneumoniae CAU202084 (MDR isolate)): NA (NA) (No antimicrobial activity at 1 mg/mL); MIC ([8]; Streptococcus suis CVCC3307, 1 × 10^6 CFU/mL, 18 h at 37 °C, NA = no antimicrobial activity at 1 mg/mL): NA (NA) (No antimicrobial activity at 1 mg/mL); MBC ([8]; Streptococcus suis CVCC3307): NA (NA) (No antimicrobial activity at 1 mg/mL); MIC ([11]; Proteus vulgaris CVCC1971, 1 × 10^6 CFU/mL, 18 h at 37 °C, NA = no antimicrobial activity at 1 mg/mL): NA (NA) (No antimicrobial activity at 1 mg/mL); MBC ([11]; Proteus vulgaris CVCC1971): NA (NA) (No antimicrobial activity at 1 mg/mL); MIC (MRSA ATCC33591; MRSA (methicillin-resistant S. aureus) ATCC33591, 1 × 10^6 CFU/mL, 18 h at 37 °C, NA = no antimicrobial activity at 1 mg/mL): NA (NA) (No antimicrobial activity at 1 mg/mL); MBC (MRSA ATCC33591): NA (NA) (No antimicrobial activity at 1 mg/mL); RT, retention time of peptide in HPLC [12]: 9.538 min
3 | polymyxin B | – | – | – | – | – | – | – | – | – | – | – | – | – | – | – | – | – | – | – | – | time to kill bacteria in the logarithmic phase (S. aureus ATCC29213): ≤ 4 h; time to kill bacteria in the plateau (S. aureus ATCC29213): ≤ 12 h; time to kill bacteria in the logarithmic phase (E. coli ATCC25922): ≤ 4 h; time to kill bacteria in the plateau (E. coli ATCC25922): ≤ 12 h
4 | CNC(C)C1CCC(N)C(OC2C(N)CC(N)C(OC3OCC(C)(O)C(NC)C3O)C2O)O1 (stereo not drawn) [Gentamicin, reference compound] | 4 mg/L (≈ 8.38 µM) | 1 mg/L (≈ 2.09 µM) | 80 mg/L (≈ 168 µM) | 80 mg/L (≈ 168 µM) | 2 mg/L (≈ 4.19 µM) | 2 mg/L (≈ 4.19 µM) | 40 mg/L (≈ 83.8 µM) | 40 mg/L (≈ 83.8 µM) | 4 mg/L (≈ 8.38 µM) | 32 mg/L (≈ 67 µM) | 4 mg/L (≈ 8.38 µM) | 2 mg/L (≈ 4.19 µM) | 4 mg/L (≈ 8.38 µM) | 4 mg/L (≈ 8.38 µM) | 8 mg/L (≈ 16.8 µM) | 4 mg/L (≈ 8.38 µM) | 4 mg/L (≈ 8.38 µM) | 4 mg/L (≈ 8.38 µM) | 4 mg/L (≈ 8.38 µM) | 4 mg/L (≈ 8.38 µM) | MBC [11, 17]: 4 mg/L (≈ 8.38 µM); MIC [11, 18]: 1 mg/L (≈ 2.09 µM); bacterial burden in the mammary gland (E. coli CAU201919; Crl:CD1 mice, 1 × 10^5 CFU E. coli CAU201919 intraductal, infected only about 3.71 × 10^9, p < 0.001): 3.13 × 10^8 CFU/g tissue; histopathologic damage of the mammary gland (acinar wall thickening, neutrophils infiltration) (E. coli CAU201919): obviously ameliorated; increase in IL-1β mRNA expression in the mammary gland (E. coli CAU201919; p < 0.001): attenuated; increase in TNF-α mRNA expression in the mammary gland (E. coli CAU201919; p < 0.001): attenuated; MIC (MRSA ATCC33591; [19]): 4 mg/L (≈ 8.38 µM); MBC (MRSA ATCC33591; [20]): 16 mg/L (≈ 33.5 µM); time to kill bacteria in the logarithmic phase (S. aureus ATCC29213): ≤ 8 h; time to kill bacteria in the plateau (S. aureus ATCC29213): ≤ 12 h; time to kill bacteria in the logarithmic phase (E. coli ATCC25922): ≤ 8 h; time to kill bacteria in the plateau (E. coli ATCC25922): ≤ 12 h
